Where “and” joins values, the source holds several entries; their conditions need not be identical. Equal values may be shown once. Read-outs that look alike come from different tables or passages of the source.

The values below come from US6911470B1, “Polyoxometalate compounds as antiviral agents” (priority 1988, dated 2005).

One assay relates to HSV-1. Put plainly: Plaque reduction assay for herpes simplex viruses in Vero cells. In kind it is cell-based, herpes simplex virus type 1. To be noted: Table 2, read-out: EC-50 HSV-1. The protocol: Cell culture assays for heroes simplex viruses. Mycoplasma-free Vero cells, obtained from Flow Laboratory (McLean, Va.), were used for the plaque assays. The methodologies for the plaque reduction and cytotoxicity assays have been previously described (Schinazi et al, Antimicrob. Agents Chemother. 22, 499-507, 1982). Median-effect method. Dose-effect relationships were analyzed by the median-effect equation (Chou et al, Adv. Enz. Regul. 22, 27-55, 1984). The slope (m) and median effective and inhibitory concentration (EC50 and IC50) values were obtained by using a computer program developed by Chou and Chou (Chou et al, Elsevier-Biosoft, Elsevier Science Publishers, Cambridge, U.K., 1985).
(In general: Plaque reduction counts the foci of infection that form in a cell layer.)

A further assay has as its system human PBM cells. The experiment in a line: Cytotoxicity assay on uninfected PHA stimulated human PBMC (trypan blue). In kind it is cell-based. In outline: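 Uninfected PHA-stimulated human PBMC at 2×10^5 cells/ml were cultured with or without drug for 6 days. Viability was counted by trypan blue exclusion on a hemacytometer. IC50 was derived by the median-effect method.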

The test system of the next assay is HIV-1 (strain LAV-1). Put plainly: microbe, parasite or virus in culture. In kind it is cell-based. How it is done:
Cells. Human peripheral blood mononuclear cells (PBMC) from healthy HIV-1 seronegative and hepatitis B virus seronegative donors were isolated by Ficoll-Hypaque discontinuous gradient centrifugation at 1,000×g for 30 minutes, washed twice in phosphate-buffered saline (pH 7.2; PBS), and pelleted at 300×g for 10 minutes. Before infection, the cells were stimulated by phytohemagglutinin (PHA) at a concentration of 6 μg/ml for three days in RPMI 1640 medium supplemented with 15% heat-inactivated fetal calf serum, 1.5 mM L-glutamine, penicillin (100 U/ml), streptomycin (100 μg/ml), and 4mM sodium bicarbonate buffer.
Viruses. HIV-1 (strain LAV-1) was obtained from Dr. P. Feorino (Centers for Disease Control, Atlanta, Ga.). The virus was propagated in human PBMC using RPMI 1640 medium, as described previously (McDougal et al, J. Immun. Meth. 76, 171-183, 1985) without PHA and supplemented with 7% v/v interleukin-2 (Advanced Biotechnologies, Silver Spring, Md.), 7 μg/ml DEAE-dextran (Pharmacia, Uppsala, Sweden), and 370 U/ml anti-human leucocyte (alpha) interferon (ICN, Lisle, Ill.). Virus obtained from cell-free culture supernatant was titrated and stored in aliquots at −80° C. until use.
Inhibition of virus replication in human PBMC. Uninfected PHA-stimulated human PBMC were uniformly distributed among 25 cm^2 flasks to give a 5 ml suspension containing about 2×10^6 cells/ml. Suitable dilutions of virus were added to infect the cultures. The mean reverse transcriptase (RT) activity of the inocula was 50,000 decompositions per min/ml corresponding to about 100 TCID50, as determined by Groopman et al. (Groopman et al, AIDS Res. Human Retro. 3, 71-85, 1987. The drugs at twice their final concentrations in 5 ml of RPMI 1640 medium, supplemented as described above, were added to the cultures. Uninfected and untreated PBMC at equivalent cell densities were grown in parallel as controls. The cultures were maintained in a humidified 5% CO2-95% air incubator at 37° C. for six days after infection, at which point all cultures were sampled for supernatant reverse transcriptase (RT) activity.
RT activity assay. Six ml supernatant from each culture was clarified from cells at 300×g for 10 minutes. Virus particles were pelleted from 5 ml samples at 40,000 rpm for 30 minutes using a Beckman 70.1 Ti rotor and suspended in 200 μl of virus disrupting buffer (50 mM Tris-Cl, pH 7.8, 800 mM NaCl, 20% glycerol, 0.5 mM phenylmethyl sulfonyl fluoride, and 0.5% Triton X-100).
The RT assay was performed in 96-well microtiter plates, as described by Spira et al. (Spira et al, J. Clin. Microbiol. 22, 97-99, 1987). The reaction mixture, which contained 50 mM Tris-Cl pH 7.8, 9 mM MgCl2, 5 mM dithiothreitol (DTT), 4.7 μg/ml (rA)n. (dT)12-18, 140 μM dATP, and 0.22 μM [^3H]TTP, specific activity 78.0 Ci/mmol, equivalent to 17,300 cpm/pmol; NEN Research Products, Boston, Mass., was added to each well. The sample (20 μl) was added to the reaction mixture which was then incubated at 37° C. for 2 hours. The reaction was terminated by the addition of 100 μl 10% trichloroacetic acid (TCA) containing 0.45 mM sodium pyrophosphate. The acid-insoluble nucleic acids which precipitated were collected on glass filters using a Skatron semi-automatic harvester. The filters were washed with 5% TCA and 70% ethanol, dried, and placed in scintillation vials. Four ml of scintillation fluid (Econofluor, NEN Research Products, Boston, Mass.) were added and the amount of radioactivity in each sample was determined using a Packard Tri-Carb liquid scintillation analyzer (model 2,000CA). The results were expressed in dpm/ml of original clarified supernatant.
Median-effect method. Dose-effect relationships were analyzed by the median-effect equation (Chou et al, Adv. Enz. Regul. 22, 27-55, 1984).

In a further assay the test system is Vero cells. The experiment in a line: Cytotoxicity assay in Vero cells. In kind it is cell-based. To be noted: for IC50: Table 2, >100 μM = Nontoxic, read-out: IC50 Toxicity Vero Cells; for Toxicity Vero Cells, percent at given concentration: 100 μM. An excerpt: Cell culture assays for heroes simplex viruses. Mycoplasma-free Vero cells, obtained from Flow Laboratory (McLean, Va.), were used for the plaque assays. The methodologies for the plaque reduction and cytotoxicity assays have been previously described (Schinazi et al, Antimicrob. Agents Chemother. 22, 499-507, 1982).

[1] abbreviates: Table 2, >100 μM = Nontoxic, read-out: IC50 Toxicity PBM Cells.
Where [2] appears, read: Table 2, several values per cell, some in brackets, read-out: EC-50 HIV-1 (LAV-1).
The mark [3] stands for this setting: Table 1, read-out: IC50 Toxicity in Human PBM Cells.
Where [4] appears, read: Table 1, read-out: EC50 Anti-HIV-1 Activity in Human PBM Cells.

Consider `Cc1cn([C@H]2C[C@H](N=[N+]=[N-])[C@@H](CO)O2)c(=O)[nH]c1=O` [Formula 22, 3′-azido-3′-deoxythymidine, reference compound], for which the EC50 was more than 100 µM with HSV-1 (Human alphaherpesvirus 1, Vero); 0.004 µM with HIV-1 (strain LAV-1) (Human immunodeficiency virus 1, PBMC, Table 1, read-out: EC50 Anti-HIV-1 Activity in Human PBM Cells); 0.00308 µM in the assay on HIV-1 (strain LAV-1) (Human immunodeficiency virus 1, PBMC, Table 2, several values per cell, some in brackets, read-out: EC-50 HIV-1 (LAV-1)). The IC50 with human PBM cells (Homo sapiens, PBMC, Table 1, read-out: IC50 Toxicity in Human PBM Cells) was more than 100 µM; in the assay with human PBM cells (Homo sapiens, PBMC, Table 2, >100 μM = Nontoxic, read-out: IC50 Toxicity PBM Cells), more than 100 µM; in the assay on Vero cells (Chlorocebus sabaeus, Vero) it was 29 µM.

In the case of “(ArgH^+)m(H^+)4-mST, where m=1-4 [(ARGH^+)nH^+(4−n)ST]”, the EC50 was 0.18 µM with HSV-1; 1.03 µM and 0.77 µM in the assay with HIV-1 (strain LAV-1) (setting [2]). For the same molecule, the IC50 in the assay with human PBM cells (setting [1]) and in the assay on Vero cells was more than 100 µM throughout.

Consider (Me4N)4W10O32 [Formula 19], for which the EC50 with HSV-1 is 5.98 µM; with HIV-1 (strain LAV-1) (setting [4]), 3.1 µM; in the assay with HIV-1 (strain LAV-1) (setting [2]), 3.05 µM and 3.3 µM. Also, the IC50 in the assay with human PBM cells (setting [3]) and with Vero cells was more than 100 µM each time.

Turning to (NH4)4W10O32 [Formula 18], the EC50 with HSV-1 was more than 10 µM; in the assay on HIV-1 (strain LAV-1) (setting [4]), 1.8 µM. The IC50 was 115 µM in the assay on human PBM cells (setting [3]), more than 100 µM in the assay on human PBM cells (setting [1]) and more than 100 µM in the assay on Vero cells.

On to (NH4)6P2W18O62 [Formula 14], for which the EC50 in the assay with HSV-1 was found to be 0.33 µM; in the assay with HIV-1 (strain LAV-1) (setting [4]), 0.91 µM; in the assay with HIV-1 (strain LAV-1) (setting [2]), 0.91 µM. The “Toxicity PBM Cells, percent at given concentration” value (“Toxicity PBM Cells, percent” below) with human PBM cells (100 μM) is 76%,. Also, the IC50 in the assay with human PBM cells (setting [3]) is 1.8 µM. For the same molecule, the “Toxicity Vero Cells, percent at given concentration” value with Vero cells is given as 83%,.

As for H3PW12O40 [Formula 2], the EC50 with HSV-1 stood at 12.7 µM; in the assay with HIV-1 (strain LAV-1) (setting [4]), 14 µM; in the assay on HIV-1 (strain LAV-1) (setting [2]), 14 µM. The values for the IC50 in the assay on human PBM cells (setting [3]) and in the assay with Vero cells were more than 100 µM and 10 µM, respectively.

As to H4SiW12O40 [Formula 3], the EC50 in the assay on HSV-1 was 1.6 µM; with HIV-1 (strain LAV-1) (setting [4]) it was 0.12 µM; in the assay on HIV-1 (strain LAV-1) (Table 2, several values per cell, some in brackets, listed as α and β H4ST, read-out: EC-50 HIV-1 (LAV-1)), 0.12 µM and 0.21 µM. For the same molecule, the IC50 in the assay on human PBM cells (setting [3]) is more than 200 µM; in the assay on Vero cells it was 80 µM. Besides, the “therapeutic index in human PBM cells” value in the assay on HIV-1 (strain LAV-1) (from Table 1 EC50 and IC50) is “highest”.

Regarding H5BW12O40 [Formula 4], the results for the EC50 with HSV-1 and with HIV-1 (strain LAV-1) (setting [4]) were less than 1 µM and 0.46 µM, respectively. For the same molecule, the “Toxicity PBM Cells, percent” value in the assay with human PBM cells (200 μM) is listed as 76%,. The IC50 with human PBM cells (setting [3]) stood at 126 µM; with Vero cells, 85 µM.

Regarding H6P2W18O62 [Formula 13], the EC50 in the assay with HSV-1 was determined as 0.16 µM; in the assay on HIV-1 (strain LAV-1) (setting [4]), 0.52 µM; in the assay with HIV-1 (strain LAV-1) (setting [2]), 0.52 µM. Further, in the assay on human PBM cells (100 μM), the “Toxicity PBM Cells, percent” value is 90%,. The IC50 in the assay with human PBM cells (setting [3]) was 6.2 µM. For the same molecule, the “Toxicity Vero Cells, percent at given concentration” value in the assay with Vero cells is reported as 81.9%,.

One may read the IC50 as the point on the concentration scale where inhibition reaches its midpoint.
